# In US20250032624A1, “SMALL MOLECULE DEGRADATION METHODS FOR TREATING ALS/FTD” (University of Florida Research Foundation, Incorporated, priority 2021, published 2025):
# How the values were obtained:
# C9orf72 = C9orf72 transcript RT-qPCR in healthy iPSNs; assay type: cell-based, human
# Protocol: Differentiated motor neurons (iPSNs) were derived from the iPSCs listed in the previous section. The differentiation process was based on a previously reported method with slight modifications^33,34. Briefly, iPSCs were plated into Matrigel-coated 100 mm dishes (30-40% confluence). Neuroepithelial induction was performed by replacing the Basal medium with Stage 1 medium [47.5% IMDM (Iscove's Modified Dulbecco's Medium), 47.5% F12 medium, 1% NEAA (Non-Essential Amino Acids) (Life Technologies), 2% B27 (Invitrogen), 1% N2 (Invitrogen), 1% PSA (Penicillin-Streptomycin-Amphotericin), 0.2 μM LDN193189 (Stemgent), 10 μM SB431542 (STEMCELL Technologies) and 3 μM CHIR99021 (Sigma-Aldrich)]. The medium was changed daily for 6 days, after which cells were detached from plates using Accutase (STEMCELL Technologies). Cells were seeded into 6-well plates (1.5×10^6 cells/well) in 3 mL of Stage 2 medium [Stage 1 medium supplemented with 0.1 μM All-trans RA (Sigma-Aldrich) and 1 μM SAG (Cayman Chemicals)]. Cells were maintained in Stage 2 medium, with daily medium changes, through Day 11 of the differentiation process. On Day 12, the Stage 2 cell medium was removed and replaced with Stage 3 medium [47.5% IMDM, 47.5% F12 medium, 1% NEAA, 2% B27, 1% N2, 1% PSA, 0.1 μM Compound E (Millipore; Catalog #: 565790), 2.5 μM DAPT (Sigma-Aldrich), 0.1 μM db-cAMP (Millipore), 0.5 μM All-trans RA, 0.1 μM SAG, 20 ng/mL ascorbic acid, 10 ng/mL BDNF (STEMCELL Technologies), and 10 ng/mL GDNF (STEMCELL Technologies)]. This medium was replaced every three days until the end of the differentiation process. Typically, a minimum of 18 days is required to produce immature differentiated motor neurons; 30 days of differentiation is the standard for producing mature differentiated spinal neurons. The cells can be maintained in medium for an additional 14-28 days after reaching maturation. […]
# For iPSNs cells were differentiated, following the protocol outlined above, until Day 15. […] RNA was extracted as described above and the expression levels of C9orf72 variants was determined by RT-qPCR and normalized to GAPDH. […]
# [1] = system: induced pluripotent stem cells (iPSCs); test: Cell viability in iPSCs; assay type: cell-based, human; settings: doses up to 1 μM
# Protocol: (§1) Patient-derived LCLs were seeded overnight in 96-well plates (˜10^4 cells/well) and treated with compounds for 96 hours. Cell viability was measured using the CellTiter-Fluor™ Cell Viability Assay (Promega) per the manufacturer's protocol. iPSC cell viability was measured by seeding cells in Matrigel-coated 6-well plates with Basal medium (iPSC maintenance described above). After overnight incubation, the medium was replaced with fresh medium containing compounds diluted in 0.1% DMSO. Cells were treated with compound for 96 hours. Cell viability was measured using the AlamarBlue™ Cell Viability Reagent (DAL1025, Thermo Fisher Scientific) per the manufacturer's protocol. iPSN cell viability was measured by […]
# [2] = system: poly(GP), poly(GA) and TDP-43 inclusions; test: Immunohistochemistry of cortex slices of +/+PWR500 mice; assay type: in vivo, mouse; settings: IHC
# Protocol: (§2) A total of 20 age- and gender-matched mice (12 +/+PWR500 [5 Male and 7 Female] and 8 WT [4 Male and 4 Female]), ranging from 18-21 weeks old were used in therapeutic efficacy studies (Table 4). Mice were treated with a single bolus injection of 33 nmol of compound 2 formulated in 1% (v/v) DMSO/99% water, administered by an intracerebroventricular injection (ICV). Three weeks post injection, mice were euthanized, and tissue was harvested for study.
# Postmortem brain tissue was harvested and sliced along the sagittal plane at the midline. The right hemisphere was stored for 48 hours in 10% neutral buffered formalin. Tissue processing, embedding and sectioning were then performed by the Scripps Florida Histology Core. Formalin-fixed tissue was processed on a Sakura Tissue-Tek VIP 5 paraffin processor. Tissue was first embedded in paraffin, sectioned at 4 μm, and then mounted on positively charged slides. Slides were stained with primary antibody (see below) using the Leica BOND-MAX platform. Slides were then subjected to the Leica Refine Detection Kit containing the secondary polymer, DAB chromagen, and the counterstain. Slides were dehydrated in graded alcohols and cleared in xylene, before being cover slipped with a permanent mounting medium (Cytoseal 60; Thermo Scientific).
# poly(GP) = poly(GP) and β-actin by electrochemiluminescence assay in brain of +/+PWR500 mice; assay type: in vivo, mouse
# Protocol: as §2
# Postmortem brain tissue was harvested and sliced along the sagittal plane at the midline. The left hemisphere was frozen for RNA and protein analysis. Frozen brain tissue was homogenized in 300 μL Tris-EDTA buffer with a 1:5 w/v ratio of 2× protease and phosphatase inhibitors, as was done for RNA analysis of the tissue. Half of the homogenized tissue (150 μL) was mixed with 2× Lysis Buffer (50 mM Tris, pH 7.4, 250 mM NaCl, 2% (v/v) Triton X-100, and 4% (w/v) SDS) and sonicated at 1 second on/off intervals at 30% for a total of 15 seconds. Detergent from was removed using a Pierce™ Detergent Removal Spin Column 0.5 mL (Thermo Scientific) according to the manufacturer's protocol. Protein concentrations were then measured by BCA assay (Pierce Biotechnology) and poly(GP) was measured as described above for the electrochemical luminescent sandwich immunoassay.
# [3] = system: iPSC differentiated motor neurons (iPSNs); test: Cell viability in iPSNs; assay type: cell-based, human; settings: doses up to 1 μM
# Protocol: as §1
smiles,measurement,setting,value
CCOC(=O)C1=C(Nc2ccccc2)S/C(=C\c2ccc(OCCOCCOCCOCCNC(=O)CCCOc3ccc4c(c3)c3cc5c(C(=O)N[C@H](C)CN(C)C)nccc5c(C)c3n4C)c(O)c2)C1=O [ALS Compound Formula I],effect on exon 2-3 levels,C9orf72,No effect
same,effect on intron 1b levels,C9orf72,No effect
same,effect on intron 1 levels,C9orf72,No effect
same,toxicity,[1],no significant toxicity
same,TDP-43 inclusions,[2],significantly reduced
same,poly(GA) inclusions,[2],significantly reduced
same,poly(GP) inclusions,[2],significantly reduced
same,β-actin abundance,poly(GP); house-keeping protein,unaffected
same,reduction of poly(GP),"poly(GP); single ICV injection, 3 weeks",~40%
same,toxicity,[3],no significant toxicity
